Source: US8507464B2, “Phosphoramidate alkylator prodrugs” (Threshold Pharmaceuticals, Inc., priority 2005, dated 2013)

System: NCI H460 xenograft
Assay: NCI H460 non small cell lung carcinoma xenograft mouse model (Example 48)
Format: in vivo
Settings: day 29, vs vehicle
Method: Female CB17/SCID mice (purchased from Charles River, Cambridge, Mass.), 7-8 weeks of age, were allowed to acclimatize for at least three days, and handled under pathogen-free conditions. Human […] cell line NCI H460 was obtained from the American Type Culture Collection. The cell lines were cultured and harvested according to the procedure described in Example 47 and inoculated at 1×10^6 cells/animal in the peritoneal subcutaneous space. When the tumors grew to an average volume of 100 mm^3 (day 8), […], as tabulated in the table below: Compound 25 (2.5 mg/ml in 10% PEG; administration route—i.p.) and Taxol (1 mg/ml in 5% EtOH, 5% Cremophor and 90% saline; administration—i.v. 2 h after administration of Compound 25). The body weight and tumor volumes were measured as described in Example 47 above.
Results are presented in Table X2 based on tumor volume measurement on day 29 when vehicle treated mice had reached a volume of 946 mm^3. Groups of 5 mice receiving saline or no treatment were added in order to indicate any vehicle effects but are not used for comparisons in this analysis.

Compound: Cn1c(COP(=O)(NCCBr)NCCBr)cnc1[N+](=O)[O-] [Compound 25]
- % Inhibition vs Group 2 (Group 3: Compound 25 25 mg/kg (q1d × 5)/week × 2 weeks): 50.1%
- % Inhibition vs Group 2 (Group 4: Compound 25 50 mg/kg (q2d × 3)/week × 2 weeks): 52%
- % Inhibition vs Group 2 (Group 5: Compound 25 100 mg/kg (q7d × 1)/week × 2 weeks): 46.7%
